Values of other authors, collected in EP3854219A1, “EDIBLE AND WATER-SOLUBLE CHEWABLE TOY FOR ANIMALS, IN PARTICULAR FOR THE RELEASE OF ACTIVE INGREDIENTS” (New Project S.r.l., priority 2020, dated 2021).

Tested on: rats
Conditions: oral ingestion

CO [methanol]
LD50: 5628 mg/kg
